Assay results reported in ChEMBL document CHEMBL1201862, “PubChem BioAssay data set” (2004).
Active and inactive are the calls of the source.

Experiments:
[1] = target: Beta-2 adrenergic receptor (Homo sapiens, UniProt P07550); assay: ADRB2 activation measured by internalization – cell-based, FAP fluorogen, flow cytometry, cherry pick 1, dose response (AID 588763); assay type: functional
[2] = target: T1, Apoptotic protease-activating factor 1 (Homo sapiens, UniProt O14727); assay type: functional
T1 sequence (O14727 whole entry): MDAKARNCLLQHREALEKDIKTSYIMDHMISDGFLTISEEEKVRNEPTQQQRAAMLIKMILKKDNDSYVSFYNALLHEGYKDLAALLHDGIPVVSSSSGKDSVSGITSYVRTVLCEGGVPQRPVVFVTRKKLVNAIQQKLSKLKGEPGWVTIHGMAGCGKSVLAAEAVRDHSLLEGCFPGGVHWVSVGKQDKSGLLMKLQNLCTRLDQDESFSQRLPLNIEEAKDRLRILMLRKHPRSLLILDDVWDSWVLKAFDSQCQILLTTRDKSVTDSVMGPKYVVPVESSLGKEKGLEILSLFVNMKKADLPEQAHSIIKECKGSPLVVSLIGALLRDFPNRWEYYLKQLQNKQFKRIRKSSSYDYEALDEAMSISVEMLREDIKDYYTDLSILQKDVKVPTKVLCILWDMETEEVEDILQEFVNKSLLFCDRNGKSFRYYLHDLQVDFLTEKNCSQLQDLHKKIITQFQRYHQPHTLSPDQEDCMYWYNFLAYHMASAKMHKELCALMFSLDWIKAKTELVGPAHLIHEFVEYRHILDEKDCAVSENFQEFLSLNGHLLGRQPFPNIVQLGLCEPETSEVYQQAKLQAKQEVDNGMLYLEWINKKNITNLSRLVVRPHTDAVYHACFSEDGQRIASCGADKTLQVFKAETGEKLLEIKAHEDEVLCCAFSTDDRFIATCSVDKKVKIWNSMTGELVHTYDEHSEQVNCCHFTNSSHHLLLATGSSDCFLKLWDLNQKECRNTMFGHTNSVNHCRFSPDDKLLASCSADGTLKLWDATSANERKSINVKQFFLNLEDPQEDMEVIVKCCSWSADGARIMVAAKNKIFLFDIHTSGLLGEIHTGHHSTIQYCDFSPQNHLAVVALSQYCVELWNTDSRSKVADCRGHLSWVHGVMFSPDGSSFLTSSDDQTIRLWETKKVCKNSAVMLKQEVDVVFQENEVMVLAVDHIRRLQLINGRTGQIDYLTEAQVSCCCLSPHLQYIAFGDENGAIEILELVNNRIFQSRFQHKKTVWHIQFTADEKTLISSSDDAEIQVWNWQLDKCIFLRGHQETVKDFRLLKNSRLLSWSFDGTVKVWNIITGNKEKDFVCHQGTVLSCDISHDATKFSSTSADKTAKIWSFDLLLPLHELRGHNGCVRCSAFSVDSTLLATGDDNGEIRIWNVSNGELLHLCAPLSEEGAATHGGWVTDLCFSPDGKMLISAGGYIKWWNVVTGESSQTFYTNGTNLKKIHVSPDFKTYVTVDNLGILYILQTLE

[3] = target: Tyrosine-protein phosphatase non-receptor type 11 (Homo sapiens, UniProt Q06124); assay: PTPN11 enzyme inhibitors – biochemical, selectivity assay for STEP inhibitor project, dose response (AID 602367); assay type: functional; details: read-out: IC50_Mean
[4] = target: Tyrosine-protein phosphatase non-receptor type 5 (Homo sapiens, UniProt P54829); assay: PTPN5 enzyme inhibition – biochemical, fluorescence intensity, uHTS hits, confirmation (AID 602372); assay type: functional; details: read-out: IC50_Mean
[5] = target: Dual specificity protein phosphatase 3 (Homo sapiens, UniProt P51452); assay: VHR phosphatase inhibition, dose response, selectivity assay for STEP inhibitor project, biochemical (AID 602374); assay type: functional; details: read-out: IC50_Mean
Insulin-degrading enzyme [6] = target: T2, Insulin-degrading enzyme (Homo sapiens, UniProt P14735); assay: recombinant IDE activation, cell-free – biochemical, fluorescence polarization, counter-screen for IDE activator project, dose response (AID 588681)
T2 sequence (P14735 whole entry): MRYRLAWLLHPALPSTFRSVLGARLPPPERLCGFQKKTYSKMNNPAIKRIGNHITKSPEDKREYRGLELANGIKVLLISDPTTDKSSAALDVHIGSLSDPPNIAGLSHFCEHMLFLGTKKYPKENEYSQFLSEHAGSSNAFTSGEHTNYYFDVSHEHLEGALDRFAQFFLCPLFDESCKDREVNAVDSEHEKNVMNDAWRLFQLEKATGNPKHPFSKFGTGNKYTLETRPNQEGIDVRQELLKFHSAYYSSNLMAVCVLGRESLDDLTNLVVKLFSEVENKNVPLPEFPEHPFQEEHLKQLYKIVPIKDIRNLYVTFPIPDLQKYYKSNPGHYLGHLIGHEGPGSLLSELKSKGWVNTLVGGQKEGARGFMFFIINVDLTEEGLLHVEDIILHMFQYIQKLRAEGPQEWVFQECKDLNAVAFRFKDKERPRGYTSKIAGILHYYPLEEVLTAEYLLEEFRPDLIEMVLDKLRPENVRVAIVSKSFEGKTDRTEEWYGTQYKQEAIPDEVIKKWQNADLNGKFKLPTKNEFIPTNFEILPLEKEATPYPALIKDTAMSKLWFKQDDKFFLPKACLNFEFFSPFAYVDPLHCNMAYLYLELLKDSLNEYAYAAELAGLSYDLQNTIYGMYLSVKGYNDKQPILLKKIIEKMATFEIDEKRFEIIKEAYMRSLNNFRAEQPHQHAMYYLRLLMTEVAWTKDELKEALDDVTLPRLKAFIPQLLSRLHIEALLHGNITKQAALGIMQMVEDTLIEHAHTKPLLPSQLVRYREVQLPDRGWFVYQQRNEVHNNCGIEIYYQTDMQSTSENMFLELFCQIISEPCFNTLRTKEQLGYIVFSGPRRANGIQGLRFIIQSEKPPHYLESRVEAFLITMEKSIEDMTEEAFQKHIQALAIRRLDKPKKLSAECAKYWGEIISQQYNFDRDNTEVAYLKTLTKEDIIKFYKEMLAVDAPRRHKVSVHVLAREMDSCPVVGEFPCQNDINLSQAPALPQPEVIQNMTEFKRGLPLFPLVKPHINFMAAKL

Insulin-degrading enzyme [7] = target: T2, Insulin-degrading enzyme; assay: cellular IDE activation of Abeta substrate cleavage – fluorescence polarization, HEK cells, dose response (AID 588439); assay type: functional, cell-based
HEK293 [8] = assay: membrane integrity loss in HEK cells – cell-based, fluorescence, cytotoxicity control for IDE activator project, dose response (AID 588440); assay type: functional; details: Homo sapiens;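 also: cytotoxicity by LDH release measuring loss of membrane integrity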
HEK293 [9] = assay: optical interference in Abeta FP readout, dose response, artefact control for IDE activator project, biochemical, fluorescence polarization (AID 588442); assay type: functional, cell-based; details: Homo sapiens
[10] = target: Photoreceptor-specific nuclear receptor (Homo sapiens, UniProt Q9Y5X4); assay type: functional, cell-based;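 also: CHO-S cells with Gal4-NCOR and VP16-NR2E3 two-hybrid luciferase reporter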
[11] = target: SWI/SNF-related matrix-associated actin-dependent regulator of chromatin subfamily A member 2 (Homo sapiens, UniProt P51531); assay: Luminescence-based cell-based high throughput dose response assay to identify activators of the function of SWI/SNF related, matrix associated, actin dependent regulator of chromatin, subfamily a, member 2 (SMARCA2, BRM).; assay type: functional
[12] = Counterscreen for activators of the function of SWI/SNF related, matrix associated, actin dependent regulator of chromatin, subfamily a, member 2 (SMARCA2, BRM): Luminescence-based cell-based high throughput dose response assay to identify non-selective compounds using the VP16 reporter assay.; assay type: functional
[13] = target: T3, Carboxy-terminal domain RNA polymerase II polypeptide A small phosphatase 1 (Homo sapiens, UniProt Q9GZU7); assay: CTDSP1 inhibitors, concentration-response, biochemical, absorbance readout, ultra-high-throughput screen actives (AID 540297); assay type: functional
T3 sequence (Q9GZU7 whole entry): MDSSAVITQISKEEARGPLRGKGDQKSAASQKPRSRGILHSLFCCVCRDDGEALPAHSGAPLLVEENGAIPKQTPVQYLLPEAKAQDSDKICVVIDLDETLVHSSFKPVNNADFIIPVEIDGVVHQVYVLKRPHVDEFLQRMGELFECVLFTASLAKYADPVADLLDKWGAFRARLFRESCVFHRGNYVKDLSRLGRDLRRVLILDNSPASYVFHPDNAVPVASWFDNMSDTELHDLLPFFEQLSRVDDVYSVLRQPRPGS

Caspase-6 = target: T4, Caspase-6 (Homo sapiens, UniProt P55212); assay: inhibition of CASP6 peptide cleavage – biochemical, VEID-R110 fluorescence, cherry-pick, dose response (AID 720632)
T4 sequence (P55212 whole entry): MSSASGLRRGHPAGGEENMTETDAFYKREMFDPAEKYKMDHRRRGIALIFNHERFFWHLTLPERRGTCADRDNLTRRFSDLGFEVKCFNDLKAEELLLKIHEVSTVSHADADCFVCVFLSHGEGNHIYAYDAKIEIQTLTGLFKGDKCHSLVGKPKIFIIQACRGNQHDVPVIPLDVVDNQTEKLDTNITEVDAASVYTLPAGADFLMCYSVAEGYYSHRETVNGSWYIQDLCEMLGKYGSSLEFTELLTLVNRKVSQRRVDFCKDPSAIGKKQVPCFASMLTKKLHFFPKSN

[14] = viability of uninfected HEp-2 cells – cell-based, HTS, cytotoxicity control for RSV inhibitor project, dose response (AID 2410); assay type: functional; details: human respiratory syncytial virus
HEK293 [15] = assay: cells; assay type: functional, cell-based; details: Homo sapiens
[16] = target: T5, Nuclear receptor subfamily 0 group B member 1 (Homo sapiens, UniProt P51843); assay: Luminescence-based cell-based high throughput dose response assay for inhibitors of the orphan nuclear receptor subfamily 0, group B, member 1 (DAX1; NR0B1). [Related pubchem assays (depositor defined):AID504766, AID504790]; assay type: functional
T5 sequence (P51843 whole entry): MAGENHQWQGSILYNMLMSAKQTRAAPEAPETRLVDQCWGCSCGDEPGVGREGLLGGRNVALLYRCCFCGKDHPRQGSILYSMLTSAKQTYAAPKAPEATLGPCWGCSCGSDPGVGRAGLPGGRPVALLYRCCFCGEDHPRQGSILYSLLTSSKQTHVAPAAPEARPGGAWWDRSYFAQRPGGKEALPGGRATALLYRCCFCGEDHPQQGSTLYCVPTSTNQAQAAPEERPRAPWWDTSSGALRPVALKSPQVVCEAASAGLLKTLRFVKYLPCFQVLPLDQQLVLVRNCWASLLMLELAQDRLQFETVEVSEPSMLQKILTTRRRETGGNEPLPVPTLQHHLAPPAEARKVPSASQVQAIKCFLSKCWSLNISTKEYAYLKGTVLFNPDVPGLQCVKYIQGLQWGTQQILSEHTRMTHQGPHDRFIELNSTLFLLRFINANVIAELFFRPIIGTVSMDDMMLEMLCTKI

[17] = target: Adenosylmethionine-8-amino-7-oxononanoate aminotransferase (Mycobacterium tuberculosis, UniProt P9WQ81); assay: Mycobacterium tuberculosis BioA enzyme inhibitor Measured in Biochemical System Using Plate Reader - 2163-02_Inhibitor_Dose_CherryPick_Activity.; assay type: functional, Mycobacterium tuberculosis UT205
Adenosylmethionine-8-amino-7-oxononanoate aminotransferase, sequence (P9WQ81 whole entry): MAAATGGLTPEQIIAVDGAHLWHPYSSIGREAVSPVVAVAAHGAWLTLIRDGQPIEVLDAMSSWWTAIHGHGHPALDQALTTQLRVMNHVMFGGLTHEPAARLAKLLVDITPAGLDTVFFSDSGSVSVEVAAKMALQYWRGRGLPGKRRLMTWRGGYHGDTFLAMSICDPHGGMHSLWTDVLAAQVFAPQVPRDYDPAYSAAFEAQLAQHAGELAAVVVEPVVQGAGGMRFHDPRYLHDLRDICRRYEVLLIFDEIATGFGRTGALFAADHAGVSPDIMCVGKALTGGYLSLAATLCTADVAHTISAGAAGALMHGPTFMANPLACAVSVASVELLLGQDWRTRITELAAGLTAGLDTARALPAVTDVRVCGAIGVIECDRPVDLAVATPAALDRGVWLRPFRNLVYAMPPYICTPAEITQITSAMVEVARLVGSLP

Beta-2 adrenergic receptor, sequence (P07550 whole entry): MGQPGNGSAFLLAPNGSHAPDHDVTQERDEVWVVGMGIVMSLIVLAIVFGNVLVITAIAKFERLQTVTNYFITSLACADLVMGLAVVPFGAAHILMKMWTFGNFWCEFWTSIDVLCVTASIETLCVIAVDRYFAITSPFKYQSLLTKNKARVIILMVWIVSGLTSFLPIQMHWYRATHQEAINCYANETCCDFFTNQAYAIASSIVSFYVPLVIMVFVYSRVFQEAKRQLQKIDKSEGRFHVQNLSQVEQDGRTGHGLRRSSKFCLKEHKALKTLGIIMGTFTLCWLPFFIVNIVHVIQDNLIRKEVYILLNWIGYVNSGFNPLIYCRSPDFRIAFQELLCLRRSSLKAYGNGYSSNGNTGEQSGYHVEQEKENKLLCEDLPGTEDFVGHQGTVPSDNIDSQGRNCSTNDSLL
Tyrosine-protein phosphatase non-receptor type 11, sequence (Q06124 whole entry): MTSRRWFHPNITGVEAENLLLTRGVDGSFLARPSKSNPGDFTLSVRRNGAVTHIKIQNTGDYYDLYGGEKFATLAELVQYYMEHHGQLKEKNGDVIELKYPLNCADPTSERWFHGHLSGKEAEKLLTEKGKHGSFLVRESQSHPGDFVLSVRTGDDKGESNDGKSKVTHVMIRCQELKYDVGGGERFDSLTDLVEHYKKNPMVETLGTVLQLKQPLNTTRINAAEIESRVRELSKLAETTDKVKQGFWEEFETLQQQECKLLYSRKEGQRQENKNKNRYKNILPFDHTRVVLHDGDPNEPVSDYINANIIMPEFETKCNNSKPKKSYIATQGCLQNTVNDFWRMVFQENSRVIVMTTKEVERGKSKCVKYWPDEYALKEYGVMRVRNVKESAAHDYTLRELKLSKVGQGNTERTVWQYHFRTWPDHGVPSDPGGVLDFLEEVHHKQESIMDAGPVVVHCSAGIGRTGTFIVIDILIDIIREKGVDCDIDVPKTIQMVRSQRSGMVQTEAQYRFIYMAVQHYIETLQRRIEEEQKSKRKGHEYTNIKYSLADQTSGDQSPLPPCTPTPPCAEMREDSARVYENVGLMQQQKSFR
Dual specificity protein phosphatase 3, sequence (P51452 whole entry): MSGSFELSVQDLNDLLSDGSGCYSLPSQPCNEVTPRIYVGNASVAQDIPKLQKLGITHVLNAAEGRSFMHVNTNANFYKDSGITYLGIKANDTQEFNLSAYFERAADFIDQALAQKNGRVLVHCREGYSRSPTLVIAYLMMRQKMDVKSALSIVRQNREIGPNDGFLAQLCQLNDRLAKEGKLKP
Tyrosine-protein phosphatase non-receptor type 5, sequence (P54829 whole entry): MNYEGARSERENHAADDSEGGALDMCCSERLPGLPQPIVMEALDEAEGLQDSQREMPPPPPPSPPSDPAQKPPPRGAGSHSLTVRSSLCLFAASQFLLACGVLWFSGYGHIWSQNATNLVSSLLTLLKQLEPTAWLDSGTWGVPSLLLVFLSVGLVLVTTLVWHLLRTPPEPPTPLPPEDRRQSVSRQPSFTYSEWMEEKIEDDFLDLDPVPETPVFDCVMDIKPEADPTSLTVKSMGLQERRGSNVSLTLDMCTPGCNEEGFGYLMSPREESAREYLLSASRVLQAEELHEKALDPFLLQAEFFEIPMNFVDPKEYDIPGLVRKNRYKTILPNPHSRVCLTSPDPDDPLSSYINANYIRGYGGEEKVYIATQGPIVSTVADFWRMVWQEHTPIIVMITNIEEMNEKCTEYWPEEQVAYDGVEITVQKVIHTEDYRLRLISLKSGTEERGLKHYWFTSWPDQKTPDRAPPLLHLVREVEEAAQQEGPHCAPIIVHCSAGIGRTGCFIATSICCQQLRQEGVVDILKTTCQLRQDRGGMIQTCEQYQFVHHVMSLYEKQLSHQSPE
SWI/SNF-related matrix-associated actin-dependent regulator of chromatin subfamily A member 2, sequence (P51531 whole entry): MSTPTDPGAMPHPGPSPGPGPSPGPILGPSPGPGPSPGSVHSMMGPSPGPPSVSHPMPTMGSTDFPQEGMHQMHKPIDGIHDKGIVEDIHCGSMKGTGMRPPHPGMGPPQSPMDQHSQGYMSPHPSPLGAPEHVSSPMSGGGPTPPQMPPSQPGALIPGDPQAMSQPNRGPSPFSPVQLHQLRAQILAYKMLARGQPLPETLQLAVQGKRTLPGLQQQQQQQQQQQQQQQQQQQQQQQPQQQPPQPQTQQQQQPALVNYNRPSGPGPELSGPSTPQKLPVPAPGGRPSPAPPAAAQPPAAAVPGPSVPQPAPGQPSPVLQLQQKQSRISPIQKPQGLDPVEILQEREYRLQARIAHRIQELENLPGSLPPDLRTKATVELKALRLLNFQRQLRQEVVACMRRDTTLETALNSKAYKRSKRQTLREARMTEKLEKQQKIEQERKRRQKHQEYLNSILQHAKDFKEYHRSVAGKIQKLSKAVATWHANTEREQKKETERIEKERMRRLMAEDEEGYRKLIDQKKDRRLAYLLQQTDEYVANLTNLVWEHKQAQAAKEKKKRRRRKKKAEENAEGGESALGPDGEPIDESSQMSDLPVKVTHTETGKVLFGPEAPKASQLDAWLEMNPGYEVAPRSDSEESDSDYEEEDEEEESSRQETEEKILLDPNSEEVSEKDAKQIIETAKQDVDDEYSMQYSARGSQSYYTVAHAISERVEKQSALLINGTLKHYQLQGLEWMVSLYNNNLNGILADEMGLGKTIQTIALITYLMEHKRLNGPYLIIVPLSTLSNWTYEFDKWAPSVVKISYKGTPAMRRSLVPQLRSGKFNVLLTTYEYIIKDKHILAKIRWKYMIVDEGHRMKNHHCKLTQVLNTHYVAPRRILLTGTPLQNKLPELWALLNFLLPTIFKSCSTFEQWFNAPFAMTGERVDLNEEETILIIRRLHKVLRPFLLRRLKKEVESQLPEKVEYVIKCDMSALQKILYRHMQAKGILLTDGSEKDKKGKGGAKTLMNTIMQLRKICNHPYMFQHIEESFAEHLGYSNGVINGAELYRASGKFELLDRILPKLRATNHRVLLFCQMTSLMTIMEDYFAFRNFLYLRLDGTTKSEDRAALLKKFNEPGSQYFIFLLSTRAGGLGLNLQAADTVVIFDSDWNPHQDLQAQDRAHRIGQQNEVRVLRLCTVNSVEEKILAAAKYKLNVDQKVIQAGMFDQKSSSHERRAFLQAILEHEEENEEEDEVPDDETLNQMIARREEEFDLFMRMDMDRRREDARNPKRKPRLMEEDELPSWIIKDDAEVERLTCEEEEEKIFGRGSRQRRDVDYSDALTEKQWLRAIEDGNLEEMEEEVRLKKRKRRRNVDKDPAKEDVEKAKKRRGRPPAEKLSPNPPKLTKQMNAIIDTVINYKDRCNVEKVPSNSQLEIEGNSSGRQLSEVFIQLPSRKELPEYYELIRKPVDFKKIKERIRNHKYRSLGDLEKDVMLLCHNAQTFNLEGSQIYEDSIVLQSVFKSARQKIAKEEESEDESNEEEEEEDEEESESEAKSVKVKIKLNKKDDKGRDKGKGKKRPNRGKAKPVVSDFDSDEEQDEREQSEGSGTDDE
Photoreceptor-specific nuclear receptor, sequence (Q9Y5X4 whole entry, the tested form may be a part): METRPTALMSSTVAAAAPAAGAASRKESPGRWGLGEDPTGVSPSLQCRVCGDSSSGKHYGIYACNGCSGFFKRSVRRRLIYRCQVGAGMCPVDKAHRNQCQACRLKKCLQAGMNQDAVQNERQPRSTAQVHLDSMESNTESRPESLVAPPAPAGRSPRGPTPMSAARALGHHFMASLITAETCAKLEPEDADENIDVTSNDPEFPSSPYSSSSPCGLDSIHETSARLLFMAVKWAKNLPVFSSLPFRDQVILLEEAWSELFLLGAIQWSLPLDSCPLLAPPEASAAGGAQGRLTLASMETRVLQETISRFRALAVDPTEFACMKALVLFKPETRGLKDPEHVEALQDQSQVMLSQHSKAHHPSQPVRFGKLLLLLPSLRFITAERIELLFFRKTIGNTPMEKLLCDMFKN

## Cc1c(C(=O)N2CCc3ccccc3C2)oc2ccc(S(=O)(=O)N3CCCCCC3)cc12
[1]
  EC50: 1.46 µM (active)

## CC(=O)c1ccc2c(c1)c(C#N)c1ccccc1[n+]2[O-]
[2]
  IC50: 88.8 µM (active)

## Cc1ccc(N=C(S)N(CCN(C)C)Cc2cccs2)c(C)c1
[3]
  IC50: 3.37 µM (active)
[4]
  IC50: 24.6 µM (inactive)
[5]
  IC50: 1.36 µM (active)

## CC(OC(=O)c1c2c(nc3ccccc13)/C(=C\c1ccc3c(c1)OCO3)CCC2)C(=O)Nc1ccc(S(N)(=O)=O)cc1 (stereo not given)
Insulin-degrading enzyme [6]
  EC50: > 54.7 µM (inactive)
Insulin-degrading enzyme [7]
  EC50: > 54.7 µM (inactive)
HEK293 [8]
  IC50: > 89.2 µM (inactive)
HEK293 [9]
  EC50: > 54.7 µM (inactive)

## O=C(NC1(Cc2ccc(O)cc2)CCCCC1)c1ccccc1
[1]
  EC50: 7.42 µM (active)

## Cc1cccc(C(=O)N[C@H](C(=O)Nc2ncc(C)s2)C(C)C)c1
[10]
  IC50: 0.0592 µM (active)
[11]
  EC50: > 91.1 µM (inactive)
[12]
  EC50: > 91.1 µM (inactive)

## O=S(=O)(Nc1ccccc1)c1cccc2nsnc12
[13]
  IC50: 6.86 µM (active)
[3]
  IC50: 3.9 µM (active)
[4]
  IC50: 35.1 µM (inactive)
[5]
  IC50: 2.91 µM (active)
Caspase-6
  AC50: 8.86 µM (active)

## Cn1c(CN2CCOCC2)nnc1SCC(=O)Nc1ccc([N+](=O)[O-])cc1O
Insulin-degrading enzyme [6]
  EC50: > 54.7 µM (inactive)
Insulin-degrading enzyme [7]
  EC50: > 54.7 µM (inactive)
HEK293 [8]
  IC50: > 89.2 µM (inactive)
HEK293 [9]
  EC50: > 54.7 µM (inactive)

## N#C/C(=C/c1ccc(-c2cc([N+](=O)[O-])ccc2Cl)o1)C(N)=O
[14]
  CC50: 16.6 µM (active)
HEK293 [15]
  IC50: > 67.6 µM (inactive)
[16]
  IC50: > 67.6 µM (inactive)

## Cc1ccc(S(=O)(=O)OCCC2=CC(=O)CCN2Cc2ccccc2)cc1
Insulin-degrading enzyme [6]
  EC50: > 54.7 µM (inactive)
Insulin-degrading enzyme [7]
  EC50: > 54.7 µM (inactive)
HEK293 [8]
  IC50: > 89.1 µM (inactive)
HEK293 [9]
  EC50: > 55.9 µM (inactive)

## CCCCN(C)C(=O)Cn1nc(Cc2ccncc2)c2ccccc2c1=O
HEK293 [15]
  IC50: > 67.5 µM (inactive)
[16]
  IC50: > 67.5 µM (inactive)

## O=C(C1CC1)N1CC[C@@H]2[C@H]1c1cc(Br)ccc1N[C@@H]2CO
[17]
  AC50: 7.01 µM (active)

## CN1c2ccc(-c3cccc(F)c3)cc2[C@H]2[C@H](CCN2C(=O)c2ccncc2)[C@@H]1CO
[17]
  AC50: 7.24 µM (active)

## Cc1[nH]c2ccccc2c1/C=N/NC(=O)c1cccc(F)c1
HEK293 [15]
  IC50: > 67.5 µM (inactive)
[16]
  IC50: > 67.5 µM (inactive)
